Here are results for 23 molecules from patent US6319915A, “Benzazepine derivatives as inhibitors of hyperproliferation diseases” (Pfizer Inc., priority 2000, dated 2001).

Broadly, the IC50 is the concentration that inhibits the measured activity by half. Read a low IC50 as inhibition by little substance.

In the assay the target is T1, VEGF/GAG (glycosaminoglycan) (Homo sapiens, UniProt P15692).
T1 construct: purchased Repligen, Inc
T1 sequence (P15692 1-191 isoform P15692-4): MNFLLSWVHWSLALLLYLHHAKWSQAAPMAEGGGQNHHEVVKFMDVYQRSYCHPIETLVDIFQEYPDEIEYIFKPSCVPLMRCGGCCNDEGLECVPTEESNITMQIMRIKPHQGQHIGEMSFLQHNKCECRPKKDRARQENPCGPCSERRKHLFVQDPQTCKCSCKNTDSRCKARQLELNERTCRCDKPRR
The assay is described as follows: in vitro inhibition of VEGF/GAG (glycosaminoglycan) binding ([125I]heparin-16-mer / VEGF165 filter binding). As to conditions: purified VEGF165 20 nM, 60 minutes at room temperature, 0.16% DMSO. As to the method: The in vitro activity of the compounds of formula I in inhibiting VEGF/GAG (glycosaminoglycan) binding may be measured using the assay described in U.S. Pat. No. 5,795,860, the subject matter of which is incorporated herein by reference.
Using mixed cellulose ester 96-well filter plates, 150 μL of Dulbeccos PBS (phosphate buffered saline) containing 10% ovalbumin is added. Compound (5.0 μL) is added at a final concentration of […]. Compounds are dissolved in 8% DMSO (final DMSO concentration is 0.16%) and tested at concentrations of 32, 10, 3.2, 1.0, 0.32 and 0.10 μM. A mixture of [^125 I]heparin-16-mer (4500 cpm per well), purified VEGF165 (20 nM final concentration/well, prepared by Repligen, Inc.) and Dulbeccos PBS with 10% ovalbumin is added to the 96-well plate in a volume of 100 μL. Nonspecific binding is defined using 10 μM heparin-sodium from porcine intestinal mucosa. The assay plate is incubated for 60 minutes at room temperature, filtered using a Millipore filtration apparatus, the plastic bottom plate is removed and the filter plate is allowed to completely dry. The plate bottom is sealed with plastic plate seal and 25 μL of scintillation cocktail is added to each well. The top plate is sealed and is counted for radioactivity on a Microbeta Scintillation Counter. The assay is run in a final volume of 250 μL.
`Cc1ccccc1C1CC(NC(=O)Nc2ccc3[nH]nnc3c2)C(=O)N(CC(=O)NC(C)(C)C)C(c2ccccc2)C1` (centres unmarked) [2-{3-[3-(1H-Benzotriazol-5-yl)-ureido]-2-oxo-7-phenyl-5-o-tolyl-azepan-1-yl}-N-tert-butyl-acetamide] returned an IC50 of 1600 nM. `Cc1ccc2c(c1)N(CC(=O)NC(C)(C)C)C(=O)C(NC(=O)Nc1cccc(C(=O)O)c1)CC2c1ccccc1` (centres unmarked) [3-{3-[1-(tert-Butylcarbamoyl-methyl)-8-methyl-2-oxo-5-phenyl-2,3,4,5-tetrahydro-1H-benzo[b]azepin-3-yl]-ureido}-benzoic acid] yielded an IC50 of 9800 nM. Next, `COc1ccccc1C1CC(NC(=O)Nc2cccc(C(=O)Nc3nnn[nH]3)c2)C(=O)N(CC(=O)NC2(C)CCCCC2)C(c2ccccc2)C1` (centres unmarked) [3-(3-{5-(2-Methoxy-phenyl)-1-[(1-methyl-cyclohexylcarbamoyl)-methyl]-2-oxo-7-phenyl-azepan-3-yl}-ureido)-N-(1H-tetrazol-5-yl)-benzamide]: 900 nM. Consider `Cc1ccccc1C1CC(NC(=O)Nc2cccc(C(=O)NS(=O)(=O)c3ccccc3)c2)C(=O)N(CC(=O)NC(C)(C)C)C(c2ccccc2)C1` (centres unmarked) [2-{3-[3-(3-Benzenesulfonylaminocarbonyl-phenyl)-ureido]-2-oxo-7-phenyl-5-o-tolyl-azepan-1-yl}-N-tert-butyl-acetamide], for which the IC50 came out at 1400 nM.

Take `Cc1ccccc1C1CC(NC(=O)Nc2cccc(C(=O)NS(=O)(=O)Cc3ccccc3)c2)C(=O)N(CC(=O)NC(C)(C)C)C(c2ccccc2)C1` (centres unmarked) [N-tert-Butyl-2-{2-oxo-7-phenyl-3-[3-(3-phenylmethanesulfonylaminocarbonyl-phenyl)-ureido]-5-o-tolyl-azepan-1-yl}-acetamide]: the IC50 was determined as 2400 nM. Next, `Cc1ccccc1C1CC(NC(=O)Nc2cccc(C(=O)NS(=O)(=O)C(F)(F)F)c2)C(=O)N(CC(=O)NC2(C)CCCCC2)C(c2ccccc2)C1` (centres unmarked) [N-(1-Methyl-cyclohexyl)-2-{2-oxo-7-phenyl-5-o-tolyl-3-[3-(3-trifluoromethanesulfonylaminocarbonyl-phenyl)-ureido]-azepan-1-yl}-acetamide]: 1700 nM.

The molecule `Cc1ccccc1C1CC(NC(=O)Nc2cccc(-c3nnn[nH]3)c2)C(=O)N(CC(=O)NC2(C)CCCCC2)C(c2ccccc2)C1` (centres unmarked) [N-(1-Methyl-cyclohexyl)-2-(2-oxo-7-phenyl-3-{3-[3-(1H-tetrazol-5-yl)-phenyl]-ureido}-5-o-tolyl-azepan-1-yl)-acetamide] yielded an IC50 of 2000 nM. Next, `Cc1cccc(NC(=O)NC2CC(c3ccccc3C)CC(c3ccccc3)N(CC(=O)O)C2=O)c1` (centres unmarked) [[2-Oxo-7-phenyl-5-o-tolyl-3-(3-m-tolyl-ureido)-azepan-1-yl]-acetic acid]: 2400 nM; `CC1(C)CCCC(C)(C)N1C(=O)CN1C(=O)C(NC(=O)Nc2cccc(-c3nnn[nH]3)c2)COc2cc(F)ccc21` (centres unmarked) [1-{3-Fluoro-8-oxo-9-[2-oxo-2-(2,2,6,6-tetramethyl-piperidin-1-yl)-ethyl]-6,7,8,9-tetrahydro-5-oxa-9-aza-benzocyclohepten-7-yl}-3-[3-(1H-tetrazol-5-yl)-phenyl]-urea]: 1700 nM. Next, `COc1ccccc1C1CC(NC(=O)Nc2cccc(-c3nnn[nH]3)c2)C(=O)N(CC(=O)NC2(C)CCCCC2)C(c2ccccc2)C1` (centres unmarked) [2-(5-(2-Methoxy-phenyl)-2-oxo-7-phenyl-3-{3-[3-(1H-tetrazol-5-yl)-phenyl]-ureido}-azepan-1-yl)-N-(1-methyl-cyclohexyl)-acetamide]: 1900 nM; `COc1ccccc1C1CC(NC(=O)Nc2cccc(C(=O)NS(C)(=O)=O)c2)C(=O)N(CC(=O)NC(C)(C)C)C(c2ccccc2)C1` (centres unmarked) [N-tert-Butyl-2-[3-[3-(3-methanesulfonylaminocarbonyl-phenyl)-ureido]-5-(2-methoxy-phenyl)-2-oxo-7-phenyl-azepan-1-yl]-acetamide]: 5800 nM; `Cc1ccccc1C1CC(NC(=O)Nc2cccc(C(=O)Nc3nnc(C(F)(F)F)s3)c2)C(=O)N(CC(=O)NC(C)(C)C)C(c2ccccc2)C1` (centres unmarked) [3-{3-[1-(tert-Butylcarbamoyl-methyl)-2-oxo-7-phenyl-5-o-tolyl-azepan-3-yl]-ureido}-N-(5-trifluoromethyl-[1,3,4]thiadiazol-2-yl)-benzamide]: 8600 nM.

Consider `Cc1ccc2c(c1)N(CC(=O)NC(C)(C)C)C(=O)C(NC(=O)Nc1cccc(C(=O)NS(C)(=O)=O)c1)CC2c1ccccc1` (centres unmarked) [N-tert-Butyl-2-{3-[3-(3-methanesulfonylaminocarbonyl-phenyl)-ureido]-8-methyl-2-oxo-5-phenyl-2,3,4,5-tetrahydro-benzo[b]azepin-1-yl}-acetamide], for which the IC50 was 11000 nM.

`COc1ccccc1C1CC(NC(=O)Nc2cccc(C(=O)NS(C)(=O)=O)c2)C(=O)N(CC(=O)NC2(C)CCCCC2)C(c2ccccc2)C1` (centres unmarked) [2-[3-[3-(3-Methanesulfonylaminocarbonyl-phenyl)-ureido]-5-(2-methoxy-phenyl)-2-oxo-7-phenyl-azepan-1-yl]-N-(1-methyl-cyclohexyl)-acetamide] displayed an IC50 of 3000 nM. `COc1ccccc1C1CC(NC(=O)Nc2cccc(C(=O)Nc3nnn[nH]3)c2)C(=O)N(CC(=O)NC(C)(C)C)C(c2ccccc2)C1` (centres unmarked) [3-{3-[1-(tert-Butylcarbamoyl-methyl)-5-(2-methoxy-phenyl)-2-oxo-7-phenyl-azepan-3-yl]-ureido}-N-(1H-tetrazol-5-yl)-benzamide]: the IC50 came to 1700 nM. Next, `COc1ccccc1C1CC(NC(=O)Nc2cccc(C(=O)O)c2)C(=O)N(CC(=O)NC(C)(C)C)C(c2ccccc2)C1` (centres unmarked) [3-{3-[1-(tert-Butylcarbamoyl-methyl)-5-(2-methoxy-phenyl)-2-oxo-7-phenyl-azepan-3-yl]-ureido}-benzoic acid]: 4300 nM; `COc1ccccc1C1CC(NC(=O)Nc2cccc(-c3nnn[nH]3)c2)C(=O)N(CC(=O)NC(C)(C)C)C(c2ccccc2)C1` (centres unmarked) [N-tert-Butyl-2-(5-(2-methoxy-phenyl)-2-oxo-7-phenyl-3-{3-[3-(1H-tetrazol-5-yl)-phenyl]-ureido}-azepan-1-yl)-acetamide]: 700 nM; `CC1(C)CN(C(=O)CN2C(=O)C(NC(=O)Nc3cccc(-c4nnn[nH]4)c3)CSc3ccccc32)CC(C)(C)C1` (centres unmarked) [1-{4-Oxo-5-[2-oxo-2-(3,3,5,5-tetramethyl-piperidin-1-yl)-ethyl]-2,3,4,5-tetrahydro-benzo[b][1,4]thiazepin-3-yl}-3-[3-(1H-tetrazol-5-yl)-phenyl]-urea]: 6700 nM. Next, `Cc1ccccc1C1CC(NC(=O)Nc2cccc(C(=O)O)c2)C(=O)N(CC(=O)NC(C)(C)C)C(c2ccccc2)C1` (centres unmarked) [3-{3-[1-(tert-Butylcarbamoyl-methyl)-2-oxo-7-phenyl-5-o-tolyl-azepan-3-yl]-ureido}-benzoic acid]: 20000 nM.

`Cc1ccccc1C1CC(NC(=O)Nc2cccc(-c3nnn[nH]3)c2)C(=O)N(CC(=O)NC(C)(C)C)C(c2ccccc2)C1` (centres unmarked) [N-tert-Butyl-2-(2-oxo-7-phenyl-3-{3-[3-(1H-tetrazol-5-yl)-phenyl]-ureido}-5-o-tolyl-azepan-1-yl)-acetamide]: the IC50 amounted to 3700 nM. Next, `Cc1ccccc1C1CC(NC(=O)Nc2cccc(C(=O)Nc3nnn[nH]3)c2)C(=O)N(CC(=O)NC2(C)CCCCC2)C(c2ccccc2)C1` (centres unmarked) [3-(3-{1-[(1-Methyl-cyclohexylcarbamoyl)-methyl]-2-oxo-7-phenyl-5-o-tolyl-azepan-3-yl}-ureido)-N-(1H-tetrazol-5-yl)-benzamide]: 2300 nM; `Cc1ccc2c(c1)N(CC(=O)NC(C)(C)C)C(=O)C(NC(=O)Nc1cccc(-c3nnn[nH]3)c1)CC2C1CCCCC1` (centres unmarked) [N-tert-Butyl-2-(5-cyclohexyl-8-methyl-2-oxo-3-{3-[3-(1H-tetrazol-5-yl)-phenyl]-ureido}-2,3,4,5-tetrahydro-benzo[b]azepin-1-yl)-acetamide]: 4300 nM; `CC1(C)CN(C(=O)CN2C(=O)C(NC(=O)Nc3cccc(-c4nnn[nH]4)c3)COc3cc(F)ccc32)CC(C)(C)C1` (centres unmarked) [1-{3-Fluoro-8-oxo-9-[2-oxo-2-(3,3,5,5-tetramethyl-piperidin-1-yl)-ethyl]-6,7,8,9-tetrahydro-5-oxa-9-aza-benzocyclohepten-7-yl}-3-[3-(1H-tetrazol-5-yl)-phenyl]-urea]: 3700 nM.
